Source: ChEMBL document CHEMBL3272060, “Selective inhibition of the monosynaptic spinal reflex by a series of hydroxylated alkylaminoindans” (J Med Chem, 1977)

Key:
[1] = tested on: Felis catus; assay: Inhibition of electrical stimulation-induced monosynaptic spinal reflex response in unanesthetized decerebrated cat spinal cord segment at 5 mg/kg, iv relative to control; assay type: functional
[2] = tested on: Felis catus; assay: Inhibition of electrical stimulation-induced polysynaptic spinal reflex response in unanesthetized decerebrated cat spinal cord segment at 5 mg/kg, iv relative to control; assay type: functional
[3] = tested on: Felis catus; assay: Inhibition of electrical stimulation-induced monosynaptic spinal reflex response in unanesthetized decerebrated cat spinal cord segment assessed as duration at 5 mg/kg, iv; assay type: functional
[4] = tested on: Felis catus; assay: Toxicity in cat assessed as motor deficit at 2 to 4 mg/kg, iv; assay type: organism-based; design: dose 2-4 mg/kg, route intravenous; settings: in vivo
[5] = tested on: Felis catus; assay: Toxicity in cat assessed as motor deficit at 10 mg/kg, po; assay type: organism-based; design: dose 10 mg/kg, route oral; settings: in vivo
[6] = tested on: Felis catus; assay: Inhibition of electrical stimulation-induced monosynaptic spinal reflex response in unanesthetized decerebrated cat spinal cord segment assessed as duration at 2 mg/kg, iv; assay type: functional
[7] = tested on: Felis catus; assay: Induction of electrical stimulation-induced monosynaptic spinal reflex response in unanesthetized decerebrated cat spinal cord segment at 5 mg/kg, iv relative to control; assay type: functional
[8] = tested on: Felis catus; assay: Inhibition of electrical stimulation-induced polysynaptic spinal reflex response in unanesthetized decerebrated cat spinal cord segment assessed as duration at 5 mg/kg, iv; assay type: functional
[9] = tested on: Felis catus; assay: Induction of electrical stimulation-induced monosynaptic spinal reflex response in unanesthetized decerebrated cat spinal cord segment assessed as duration at 5 mg/kg, iv; assay type: functional
[10] = tested on: Felis catus; assay: Inhibition of electrical stimulation-induced monosynaptic spinal reflex response in unanesthetized decerebrated cat spinal cord segment at 2 mg/kg, iv relative to control; assay type: functional
[11] = tested on: Felis catus; assay: Inhibition of electrical stimulation-induced polysynaptic spinal reflex response in unanesthetized decerebrated cat spinal cord segment at 10 mg/kg, iv relative to control; assay type: functional
[12] = tested on: Felis catus; assay: Inhibition of electrical stimulation-induced monosynaptic spinal reflex response in unanesthetized decerebrated cat spinal cord segment assessed as duration at 10 mg/kg, iv; assay type: functional
[13] = tested on: Felis catus; assay: Inhibition of electrical stimulation-induced monosynaptic spinal reflex response in unanesthetized decerebrated cat spinal cord segment at 10 mg/kg, iv relative to control; assay type: functional
[14] = tested on: Felis catus; assay: Inhibition of electrical stimulation-induced polysynaptic spinal reflex response in unanesthetized decerebrated cat spinal cord segment at 2 mg/kg, iv relative to control; assay type: functional

SMILES	inhibition in vivo at 5 mg/kg [1] [%]	inhibition in vivo at 5 mg/kg [2] [%]	Time [3] [h]	Activity [4]	Activity [5]	further results
CC(=O)O[C@@H]1CC2=C(CC(N3CCCCC3)C2)C[C@H]1OC(C)=O (relative stereo)	0	0				
COc1cc(C(=O)OC2CCC3=C(C2)CC(N2CCCCC2)C3)cc(OC)c1OC (stereo not given)	0	0				
CC(=O)OC1CC=C(CCN2CCCCC2)CC1OC(C)=O (stereo not given)	0	0				
Cl.OC1CCC2=C(C1)CC(CCN1CCCCC1)C2 (stereo not given)	20	0	0.25	Non-toxic	Non-toxic	
CN1CC2=C(C[C@H](O)[C@H](O)C2)C1	0	0		Non-toxic	Non-toxic	
CN(C)CCCC1C2=C(CC=CC2)CCC1O (stereo not given)	0	0				
CN(C)CCCC1CC[C@@]2(O)CC=CC[C@]12O (stereo not given in full)	0	0		Non-toxic	Non-toxic	
CC(=O)O[C@H]1CC2=C(CC(N(C)C)C2)C[C@H]1OC(C)=O.Cc1ccc(S(=O)(=O)O)cc1 (stereo not given in full)	0	0	1	Non-toxic	Non-toxic	
Oc1ccc2c(c1)CC(N1CCCCC1)C2 (stereo not given)	> 80	0	<0.25	Non-toxic	Non-toxic	
Br.OC1CC2=C(CC=CC2)C1CCCN1CCCCC1 (stereo not given)	20	0	1	Non-toxic	Non-toxic	
OC1CCC2=C(C1)CC(N1CCCCC1)C2 (stereo in doubt; 7)						Time [6]: >2 h
O[C@]12CC=CC[C@]1(O)CC(N1CCCCC1)C2 (relative stereo)				Non-toxic	Non-toxic	inhibition in vivo at 5 mg/kg [7]: 0%; Time [8]: <15 min; Time [9]: <15 min
O[C@@H]1CC2=C(CC(N3CCCCC3)C2)C[C@H]1Oc1ccccc1 (relative stereo)	20	0	<0.25	Non-toxic	Non-toxic	
OC1CC=C(CCN2CCCCC2)CC1O (stereo not given)	0	0				
CCCCNC1CC2=C(CC(O)CC2)C1 (stereo not given)	0	0				
O[C@@H]1CC2=C(CC(CN3CCCCC3)C2)C[C@H]1O (relative stereo)	20	0	0	Non-toxic	Non-toxic	
OC1CCC2=C(C1)CC(NC1CCCCC1)C2 (stereo not given)	0	0				
O[C@@H]1CC2=C(CC(N3CCCCC3)C2)C[C@@H]1O (stereo not given in full)	0	0	<0.25	Non-toxic	Non-toxic	

SMILES	inhibition in vivo at 5 mg/kg [1] [%]	inhibition in vivo at 5 mg/kg [2] [%]	Time [3] [h]	Activity [4]	Activity [5]	further results
OC1CCC2=C(C1)CC(N1CCCCC1)C2 (mixture of isomers; 6)						inhibition (INH) [10]: 50%; Time [6]: 0.25 h
CN1CC2=C(C[C@H](O)[C@@H](O)C2)C1 (relative stereo)	0	0	<0.25	Non-toxic	Non-toxic	
CC(=O)O[C@H]1CC2=C(CC(N3CCCCC3)C2)C[C@H]1OC(C)=O (stereo not given in full)	50	0	>2	Non-toxic	Non-toxic	
O[C@@H]1CC2=C(CC(CN3CCCCC3)C2)C[C@@H]1O (stereo not given in full)	0	0				
CC(=O)O[C@H]1CC2=C(C[C@@H]1OC(C)=O)CN(C)C2	0	0				
CC(=O)O[C@H]1CC2=C(CCC(N3CCCCC3)C2)C[C@H]1OC(C)=O (relative stereo)	0	0				
CC(=O)O[C@@H]1CC2=C(CC(CN3CCCCC3)C2)C[C@H]1OC(C)=O.Cc1ccc(S(=O)(=O)O)cc1 (relative stereo)	20	0	<0.25	Non-toxic	Non-toxic	
OC1CCC2=C(C1)CC(N1CCCCC1)C2 (mixture of isomers; 5)				Non-toxic	Non-toxic	inhibition in vivo at 10 mg/kg [11]: 0%; Time [12]: >2 h; inhibition (INH) [10]: >80%; inhibition in vivo at 10 mg/kg [13]: > 80%; Time [6]: 1 h; inhibition in vivo at 2 mg/kg [14]: 0%
Cl.OC1CCC2=C(C1)CC(CN1CCCCC1)C2 (stereo not given)	0	0	0.25	Non-toxic	Non-toxic	
CCCCN(Cc1ccccc1)C1CC2=C(CC(O)CC2)C1.Cl (stereo not given)	20	0	1	Non-toxic	Non-toxic	
OC1CCC2=C(C1)CN(C1CCCCC1)C2 (stereo not given)	0	0	<0.25	Non-toxic	Non-toxic	
O[C@@H]1CC2CC(CN3CCCCC3)CC2C[C@@H]1O (stereo not given in full)	0	0				
OC1CCC2=C(C1)CC(N1CCCC1)C2 (stereo not given)	20	0	0.25	Non-toxic	Non-toxic	Time [8]: <15 min
CN(C)C1CC2=C(C1)C[C@H](O)[C@H](O)C2 (stereo not given in full)		0		Non-toxic	Non-toxic	inhibition in vivo at 5 mg/kg [7]: 0%
O[C@@H]1CC2=C(CC(N3CCCCC3)CC2)C[C@@H]1O (relative stereo)	0	0				
CC(=O)O[C@H]1CC2=C(CC(N(C)C)C2)C[C@@H]1OC(C)=O (relative stereo)	0	0				
O[C@H]1CC2=C(CC(N3CCCCC3)C2)C[C@@H]1O (relative stereo)	50	0	0.25	Non-toxic	Non-toxic	
